# Measured values taken from PubChem BioAssay AID1963828 (Molecular Pharmacology Branch, DTP, NCI, 2024).
# pIC50: −log10 of the molar value.
# System: 991263-137-R1-J2-PDC complex spheroid viability
# Assay: Anticancer human tumor 991263-137-R1-J2-PDC patient-derived colon adenocarcinoma cell line growth inhibition [POLQ]
# Details: for pIC50: curve of first compound; for viability, T/C: stronger effect = lower value
# Procedure: Multicellular complex tumor spheroid response to Polymerase (POL) inhibitors (novobiocin, ART-558, RP6685) in combination with a variety of drugs and investigational agents in selected tumor cell lines
# The POL inhibitors (novobiocin, ART-558, and RP6685) were evaluated both individually and in combination with standard of care and investigational anticancer small molecules within a complex spheroid model of solid tumors. . Complex spheroids include a stromal component modeled by human endothelial cells (HUVEC) and fibroblasts modeled by human mesenchymal stem cells (MSCs). The concentration ranges selected for each drug and investigational agent were based upon clinically achievable concentrations if the clinical Cmax of the agent was known.
# Compounds. The drugs and investigational agents: novobiocin (NSC847541), ART-558 (NSC835418), RP-6685 (NSC848927), peposertib (NSC802822), ceralasertib (NSC780249), elimusertib (NSC800525), camonsertib (NSC841442), AZD-1390 (NSC803789), olaparib (NSC753686), talazoparib (NSC767125), rucaparib (NSC756644), sotorasib (NSC818433), MRTX-1133 (NSC836407), SN-38 (NSC673596), topotecan (NSC609699), epotoside (NSC141540), doxorubicin (NSC123127), gemcitabine (NSC613327), 5-fluorouracil (NSC19893), paclitaxel (NSC125973), vemurafenib (NSC761431), MSA-2 (NSC828583), SN-011 (NSC837082), adavosertib (NSC754352), prexasertib (NSC758257), carboplatin (NSC241240) and oxaliplatin (NSC266046), were obtained from the National Cancer Institute (NCI) Developmental Therapeutics Program Chemical Repository (21). The FDA-approved anticancer drug set is available from the Developmental Therapeutics Program at https://dtp.cancer.gov/organization/dscb/obtaining/. […] The stock solutions were prepared in dimethyl sulfoxide (DMSO, Sigma-Aldrich, St. Louis, MO, cat. D2650), except for the platinum compounds which were prepared in saline (Quality Biological, Gaithersburg, MD, cat. 114-055-101), at 800-fold the tested concentration and stored at -70 degrees C prior to their use. All drugs and investigational agents were tested over a range starting from a high concentration at or near the clinical Cmax and decreasing in half-log increments. If the clinical Cmax for an agent had not been determined, the highest concentration tested was 10 microM, except for SN-38, which was tested at a high concentration of 1 microM.
# Cell Culture. All cells were maintained in an incubator at 37 degrees C and 5% CO2 with 95% humidity. The PDC lines were cultured according to standard operating procedures established by the NCI PDMR (https://pdmr.cancer.gov). Table 3 of the manuscript, lists the cell lines along with the number of the three cell types plated to form the mct-spheroids and media for tumor cell growth. After thawing, all PDC lines, except 997537-175-T-J1-PDC and 415267-285-R-J2-PDC, were cultured in Matrigel-coated flasks prepared with a working solution of 1X Ham's F-12 nutrient mix, without supplementation (Thermo Fisher Scientific, cat. 11765054), 100 U/mL penicillin-streptomycin (Thermo Fisher Scientific, cat. 15140122), and 2.5% Matrigel (Corning Inc., Corning, NY, cat. 354248) for the first three passages. The two PDC lines 997537-175-T-J1-PDC and 415267-285-R-J2-PDC were cultured on uncoated flasks. The 857933-349-R-J2-PDC line was cultured in 6C/Colon 1B media containing advanced DMEM/F-12 (Thermo Fisher Scientific, cat. 12634028), 10 mM HEPES (Thermo Fisher Scientific, cat. 15630080), 1X GlutaMAX supplement (Thermo Fisher Scientific, cat. 35050061), 0.1 mg/mL primocin (InvivoGen, San Diego, CA, cat. ant-pm-2), 10% defined fetal bovine serum, heat inactivated (HyClone Laboratories Inc., Logan, UT, cat. SH30070.03HI), 50% L-WRN conditioned media (ATCC, cat. CRL-3276), 1.25 mM N-Acetyl-L-cysteine (Sigma-Aldrich, cat. A9165), 10 mM nicotinamide (Sigma-Aldrich, cat. N0636), 1X B-27 supplement (Thermo Fisher Scientific, cat. 17504044), 1X N-2 supplement (Thermo Fisher Scientific, cat. […]
# [1] = second compound 0.0316 µM, first compound 0.00316 µM
# [2] = second compound 0.0316 µM, first compound 0.01 µM
# [3] = second compound 0.0316 µM, first compound 0.0316 µM
# [4] = second compound 0.0316 µM, first compound 0.1 µM
# [5] = second compound 0.1 µM, first compound 0.00316 µM
# [6] = second compound 0.1 µM, first compound 0.01 µM
# [7] = second compound 0.1 µM, first compound 0.0316 µM
# [8] = second compound 0.1 µM, first compound 0.1 µM
# [9] = second compound 0.316 µM, first compound 0.00316 µM
# [10] = second compound 0.316 µM, first compound 0.01 µM
# [11] = second compound 0.316 µM, first compound 0.0316 µM
# [12] = second compound 0.316 µM, first compound 0.1 µM
# [13] = second compound 1 µM, first compound 0.00316 µM
# [14] = second compound 1 µM, first compound 0.01 µM
# [15] = second compound 1 µM, first compound 0.0316 µM
# [16] = second compound 1 µM, first compound 0.1 µM
# [17] = second compound 3.16 µM, first compound 0.00316 µM
# [18] = second compound 3.16 µM, first compound 0.01 µM
# [19] = second compound 3.16 µM, first compound 0.0316 µM
# [20] = second compound 3.16 µM, first compound 0.1 µM
# [21] = second compound 10 µM, first compound 0.00316 µM
# [22] = second compound 10 µM, first compound 0.01 µM
# [23] = second compound 10 µM, first compound 0.0316 µM
# [24] = second compound 10 µM, first compound 0.1 µM
# 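Note: spheroids exposed to compounds for 7 days before readout.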
# 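Throughout, for viability, T/C: 100% = DMSO vehicle control viability.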
structure (smiles),measurement,setting,value
COc1cccc(OCCCN)c1-c1cc(Nc2cnc(C#N)cn2)n[nH]1 + Cc1cccc(N(C)C(=O)C2C(O)CCN2c2nc(C)cc(C(F)(F)F)c2C#N)c1,pIC50,second compound 0.0316 µM,6.17
same,pIC50,second compound 0.1 µM,6.14
same,pIC50,second compound 0.316 µM,6.06
same,pIC50,second compound 1 µM,6.00
same,pIC50,second compound 3.16 µM,6.08
same,pIC50,second compound 10 µM,6.20
same,"viability, T/C",[1],113%
same,"viability, T/C",[2],104%
same,"viability, T/C",[3],90.1%
same,"viability, T/C",[4],85.2%
same,"viability, T/C","second compound 0.0316 µM, first compound 0.316 µM",61.2%
same,"viability, T/C","second compound 0.0316 µM, first compound 1 µM",42.8%
same,"viability, T/C",[5],111%
same,"viability, T/C",[6],95.8%
same,"viability, T/C",[7],104%
same,"viability, T/C",[8],88.2%
same,"viability, T/C","second compound 0.1 µM, first compound 0.316 µM",62.2%
same,"viability, T/C","second compound 0.1 µM, first compound 1 µM",45.4%
same,"viability, T/C",[9],105%
same,"viability, T/C",[10],99.6%
same,"viability, T/C",[11],91.5%
same,"viability, T/C",[12],94%
same,"viability, T/C","second compound 0.316 µM, first compound 0.316 µM",71.4%
same,"viability, T/C","second compound 0.316 µM, first compound 1 µM",47%
same,"viability, T/C",[13],96.2%
same,"viability, T/C",[14],101%
same,"viability, T/C",[15],96.7%
same,"viability, T/C",[16],83%
same,"viability, T/C","second compound 1 µM, first compound 0.316 µM",76.7%
same,"viability, T/C","second compound 1 µM, first compound 1 µM",49.1%
same,"viability, T/C",[17],110%
same,"viability, T/C",[18],108%
same,"viability, T/C",[19],89.3%
same,"viability, T/C",[20],94.8%
same,"viability, T/C","second compound 3.16 µM, first compound 0.316 µM",79.9%
same,"viability, T/C","second compound 3.16 µM, first compound 1 µM",43.4%
same,"viability, T/C",[21],93.7%
same,"viability, T/C",[22],96.4%
same,"viability, T/C",[23],91.6%
same,"viability, T/C",[24],76.1%
same,"viability, T/C","second compound 10 µM, first compound 0.316 µM",55%
same,"viability, T/C","second compound 10 µM, first compound 1 µM",46.5%
Cn1ncnc1[C@H]1c2n[nH]c(=O)c3cc(F)cc(c23)N[C@@H]1c1ccc(F)cc1 + Cc1cccc(N(C)C(=O)C2C(O)CCN2c2nc(C)cc(C(F)(F)F)c2C#N)c1,pIC50,second compound 0.0316 µM,< 7.00
same,pIC50,second compound 0.1 µM,< 7.00
same,pIC50,second compound 0.316 µM,< 7.00
same,pIC50,second compound 1 µM,< 7.00
same,pIC50,second compound 3.16 µM,< 7.00
same,pIC50,second compound 10 µM,< 7.00
same,"viability, T/C","second compound 0.0316 µM, first compound 0.000316 µM",84.3%
same,"viability, T/C","second compound 0.0316 µM, first compound 0.001 µM",112%
same,"viability, T/C",[1],123%
same,"viability, T/C",[2],93.3%
same,"viability, T/C",[3],124%
same,"viability, T/C",[4],112%
same,"viability, T/C","second compound 0.1 µM, first compound 0.000316 µM",105%
same,"viability, T/C","second compound 0.1 µM, first compound 0.001 µM",130%
same,"viability, T/C",[5],98.4%
same,"viability, T/C",[6],83.8%
same,"viability, T/C",[7],91.8%
same,"viability, T/C",[8],86.9%
same,"viability, T/C","second compound 0.316 µM, first compound 0.000316 µM",97.9%
same,"viability, T/C","second compound 0.316 µM, first compound 0.001 µM",128%
same,"viability, T/C",[9],101%
same,"viability, T/C",[10],92.7%
same,"viability, T/C",[11],110%
same,"viability, T/C",[12],99.4%
same,"viability, T/C","second compound 1 µM, first compound 0.000316 µM",92.1%
same,"viability, T/C","second compound 1 µM, first compound 0.001 µM",110%
same,"viability, T/C",[13],101%
same,"viability, T/C",[14],104%
same,"viability, T/C",[15],99.7%
same,"viability, T/C",[16],115%
same,"viability, T/C","second compound 3.16 µM, first compound 0.000316 µM",103%
same,"viability, T/C","second compound 3.16 µM, first compound 0.001 µM",113%
same,"viability, T/C",[17],106%
same,"viability, T/C",[18],78.5%
same,"viability, T/C",[19],91.7%
same,"viability, T/C",[20],106%
same,"viability, T/C","second compound 10 µM, first compound 0.000316 µM",105%
same,"viability, T/C","second compound 10 µM, first compound 0.001 µM",114%
same,"viability, T/C",[21],92.9%
same,"viability, T/C",[22],74.8%
same,"viability, T/C",[23],106%
same,"viability, T/C",[24],92.5%
